Reference: US7962204B2 (priority 2001, dated 2011)

Tested on: behaviorally-diagnosed psychiatric conditions (DSM categories)
Parameters: species or system human
Settings: in vivo
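Throughout, for use code of agent in 301.7 Antisocial Personality Disorder: N marks novel agent found effective in subject subgroups.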
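Throughout, for use code of agent in 301.83 Borderline Personality Disorder: N marks novel agent found effective in subject subgroups.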
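Throughout, for use in 307.50 Eating Disorder NOS: N marks novel agent found effective in subject subgroups.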
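Throughout, for use in 307.51 Bulimia Nervosa: N marks novel agent found effective in subject subgroups.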
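Throughout, for use in 313.81 Oppositional Defiant Disorder: N marks novel agent found effective in subject subgroups.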

SMILES	use code of agent in 312.30 Impulse-Control Disorder NOS	use code of agent in 312.8 Conduct Disorder	use code of agent in 313.81 Oppositional Defiant Disorder	use code of agent in 315.9 Learning Disorder NOS	use code of agent in Attention-Deficit/Hyperactivity Disorder	use code of agent in 301.20 Schizoid Personality Disorder	use code of agent in 301.22 Schizotypal Personality Disorder	use code of agent in 301.4 Obsessive-Compulsive Personality Disorder	use code of agent in 301.50 Histrionic Personality Disorder	use code of agent in 301.6 Dependent Personality Disorder
NC12CC3CC(CC(C3)C1)C2 [AMANTADINE]	N	N	N	N	N					
CC(NC(C)(C)C)C(=O)c1cccc(Cl)c1 (stereo not shown) [BUPROPRION (LONG ACTING)]						N	N	N	N	N
CC(NC(C)(C)C)C(=O)c1cccc(Cl)c1 (stereo not shown) [BUPROPRION (REGULAR TABS)]						N	N	N	N	N
C[C@H](N)Cc1ccccc1 [DEXEDRINE]	N	N	N	N						
CN[C@@H](C)Cc1ccccc1 [METHAMPHETAMINE]	N	N	N	N						
COC(=O)C(c1ccccc1)C1CCCCN1 (stereo not shown) [METHYLPHENIDATE]	N	N	N	N						
COCCc1ccc(OCC(O)CNC(C)C)cc1 (stereo not shown) [METOPOLOL]						N	N	N	N	N
N[C@@H]1C[C@H]1c1ccccc1 [PARNATE, reference compound]						N		N	N	N

Same assay, conditions: in vivo

SMILES	use code of agent in 301.7 Antisocial Personality Disorder	use code of agent in 301.82 Avoidant Personality Disorder	use code of agent in 301.83 Borderline Personality Disorder	use code of agent in 302.71 Hypoactive Sexual Desire Disorder	use code of agent in 307.42 Primary Insomnia	use code of agent in 311 Depressive Disorder NOS	use code of agent in 316 Psychological Factors Affecting Medical Condition, Atypical Asthma	use code of agent in 316 Psychological Factors Affecting Medical Condition, Neurodermatitis	use code of agent in Bipolar I Disorder	use in 294.8 Amnestic Disorder
CC(NC(C)(C)C)C(=O)c1cccc(Cl)c1 (stereo not shown) [BUPROPRION (LONG ACTING)]	N	N	N	N	N	N	N	N	N	N
CC(NC(C)(C)C)C(=O)c1cccc(Cl)c1 (stereo not shown) [BUPROPRION (REGULAR TABS)]	N	N	N	N	N	N	N	N	N	N
COCCc1ccc(OCC(O)CNC(C)C)cc1 (stereo not shown) [METOPOLOL]	N	N	N		N	N		N	N	
O=C(NCCN1CCOCC1)c1ccc(Cl)cc1 [MOCLOBEMIDE]				N						
N[C@@H]1C[C@H]1c1ccccc1 [PARNATE, reference compound]	N	N	N	N	N	N	N	N	N	

Same assay, conditions: in vivo

SMILES	use in 294.9 Cognitive Disorder NOS	use in 296.89 Bipolar II Disorder	use in 299.80 Pervasive Developmental Disorder NOS	use in 300.00 Anxiety Disorder NOS	use in 300.02 Generalized Anxiety Disorder	use in 300.22 Agoraphobia Without History of Panic Disorder	use in 300.23 Social Phobia	use in 300.29 Specific Phobia	use in 300.3 Obsessive-Compulsive Disorder	use in 301.13 Cyclothymic Disorder
CC(NC(C)(C)C)C(=O)c1cccc(Cl)c1 (stereo not shown) [BUPROPRION (LONG ACTING)]	N	N	N	N	N	N	N	N	N	N
CC(NC(C)(C)C)C(=O)c1cccc(Cl)c1 (stereo not shown) [BUPROPRION (REGULAR TABS)]	N	N	N	N	N	N	N	N	N	N
COCCc1ccc(OCC(O)CNC(C)C)cc1 (stereo not shown) [METOPOLOL]	N		N	N	N	N	N		N	
N[C@@H]1C[C@H]1c1ccccc1 [PARNATE, reference compound]	N	N	N	N	N	N	N	N	N	N

Same assay, conditions: in vivo

SMILES	use in 307.1 Anorexia Nervosa	use in 307.50 Eating Disorder NOS	use in 307.51 Bulimia Nervosa	use in 307.9 Communication Disorder NOS	use in 309.21 Separation Anxiety Disorder	use in 309.81 Posttraumatic Stress Disorder	use in 312.30 Impulse-Control Disorder NOS	use in 312.31 Pathological Gambling	use in 312.34 Intermittent Explosive Disorder	use in 312.39 Trichotillomania
CC(NC(C)(C)C)C(=O)c1cccc(Cl)c1 (stereo not shown) [BUPROPRION (LONG ACTING)]	N	N	N	N	N	N	N	N	N	N
CC(NC(C)(C)C)C(=O)c1cccc(Cl)c1 (stereo not shown) [BUPROPRION (REGULAR TABS)]	N	N	N	N	N	N	N	N	N	N
COCCc1ccc(OCC(O)CNC(C)C)cc1 (stereo not shown) [METOPOLOL]	N	N	N		N	N	N	N		
N[C@@H]1C[C@H]1c1ccccc1 [PARNATE, reference compound]	N	N	N		N	N	N	N	N	N

Same assay, conditions: in vivo

SMILES	use in 312.8 Conduct Disorder	use in 313.81 Oppositional Defiant Disorder	use in 315.9 Learning Disorder NOS	use in Attention-Deficit/Hyperactivity Disorder	use in Panic Disorder	use of the agent in the diagnostic category (C = common use; N = novel use from rEEG features)	use code of agent in 316 Psychological Factors Affecting Medical Condition, Hypertensive Disorder NOS	use code of agent in 294.9 Cognitive Disorder NOS	use code of agent in 296.90 Mood Disorder NOS	use code of agent in 300.4 Dysthymic Disorder
CC(NC(C)(C)C)C(=O)c1cccc(Cl)c1 (stereo not shown) [BUPROPRION (LONG ACTING)]	N	N	N	N	N	N				
CC(NC(C)(C)C)C(=O)c1cccc(Cl)c1 (stereo not shown) [BUPROPRION (REGULAR TABS)]	N	N	N	N	N	N				
Clc1cccc(Cl)c1N=C1NCCN1 [CLONIDINE]							N			
C[C@H](N)Cc1ccccc1 [DEXEDRINE]								N	N	N
CN[C@@H](C)Cc1ccccc1 [METHAMPHETAMINE]								N	N	N
COC(=O)C(c1ccccc1)C1CCCCN1 (stereo not shown) [METHYLPHENIDATE]								N	N	N
COCCc1ccc(OCC(O)CNC(C)C)cc1 (stereo not shown) [METOPOLOL]	N	N	N	N	N	N	N		N	
O=C(NCCN1CCOCC1)c1ccc(Cl)cc1 [MOCLOBEMIDE]							N			
N[C@@H]1C[C@H]1c1ccccc1 [PARNATE, reference compound]	N	N	N	N	N	N				

Same assay, conditions: in vivo

SMILES	use code of agent in 301.13 Cyclothymic Disorder	use code of agent in 307.1 Anorexia Nervosa	use code of agent in 307.50 Eating Disorder NOS	use code of agent in 307.51 Bulimia Nervosa	use code of agent in 312.31 Pathological Gambling	use code of agent in 312.39 Trichotillomania	use in Dementia of the Alzheimer's Type	use code of agent in 296.89 Bipolar II Disorder	use code of agent in 312.34 Intermittent Explosive Disorder	use code of agent in 316 Psychological Factors Affecting Medical Condition, Irritable Bowel Syndrome
C[C@H](N)Cc1ccccc1 [DEXEDRINE]	N	N	N	N	N	N				
Nc1nnc(-c2cccc(Cl)c2Cl)c(N)n1 [LAMOTRIGINE]							N			
CN[C@@H](C)Cc1ccccc1 [METHAMPHETAMINE]	N	N		N	N	N				
COC(=O)C(c1ccccc1)C1CCCCN1 (stereo not shown) [METHYLPHENIDATE]	N	N	N	N	N	N				
COCCc1ccc(OCC(O)CNC(C)C)cc1 (stereo not shown) [METOPOLOL]	N					N		N	N	N

Same assay, conditions: in vivo

SMILES	use code of agent in Major Depressive Disorder, Recurrent	use code of agent in Major Depressive Disorder, Single Episode	use in 299.00 Autistic Disorder	use in 307.20 Tic Disorder NOS	use in 307.22 Chronic Motor or Vocal Tic Disorder	use in 307.23 Tourette's Disorder	use code of agent in 294.8 Amnestic Disorder	use in 296.90 Mood Disorder NOS	use in 300.4 Dysthymic Disorder
COCCc1ccc(OCC(O)CNC(C)C)cc1 (stereo not shown) [METOPOLOL]	N	N	N	N	N	N			
NC(=O)C[S+]([O-])C(c1ccccc1)c1ccccc1 (stereo not shown) [MODAFINIL]							N		
N[C@@H]1C[C@H]1c1ccccc1 [PARNATE, reference compound]	N	N						N	N
